Data reported in ChEMBL document CHEMBL4483862, “Open-source discovery of chemical leads for next-generation chemoprotective antimalarials” (2018).

Tested on: Plasmodium berghei
Assay: Luciferase/luciferin-expressing antifolate-resistant parasites were used to infect a culture of HepG2 cells that were pre-incubated with compounds. Infected hepatocytes emit light due to the luciferase reaction. Assay results are presented as the percent inhibition of light emission compared to control. […]
Assay type: functional
Conditions: sporozoite; for IC90: read-out: LUCIFERASE INFECTION ASSAY - IC90
[1] = read-out: LUCIFERASE INFECTION ASSAY - IC50

| SMILES | IC90 [µM] | IC50 [1] [µM] | further results |
| --- | --- | --- | --- |
| CC(C)c1ccc(/C=C/c2ccc(=O)[nH]n2)cc1 | 0.563 |  | IC50 (HEPG2TOX_HILL_SLOPE 1.26, HEPG2TOX_R_SQUARED 0.973, PBLUC_HILL_SLOPE 20.6, PBLUC_R_SQUARED 0.746, read-out: LUCIFERASE INFECTION ASSAY - IC50): 0.506 µM |
| Cc1ccc(NC(=S)NC2CCCCCCCCCCC2)cc1Cl | 8.43 |  | IC50 (HEPG2TOX_HILL_SLOPE 11.3, HEPG2TOX_R_SQUARED 0.761, PBLUC_HILL_SLOPE 19.1, PBLUC_R_SQUARED 0.333, read-out: LUCIFERASE INFECTION ASSAY - IC50): 7.51 µM |
| COc1ccccc1NS(=O)(=O)c1ccc2oc(Nc3ccc(Cl)c(C(F)(F)F)c3)nc2c1 | > 10 | > 10 |  |
| c1ccc2c(NCc3ccc(N4CCCC4)nc3)ncnc2c1 | 3.16 |  | IC50 (HEPG2TOX_HILL_SLOPE 0.683, HEPG2TOX_R_SQUARED 0.958, PBLUC_HILL_SLOPE 1.41, PBLUC_R_SQUARED 0.701, read-out: LUCIFERASE INFECTION ASSAY - IC50): 0.668 µM |
| COc1ccc(NC(=O)C2(C)Cc3c(-c4cccc(NC(C)=O)c4)ccnc3O2)cc1 (configuration not stated) | 3.58 |  | IC50 (HEPG2TOX_HILL_SLOPE 2.96, HEPG2TOX_R_SQUARED 0.838, PBLUC_HILL_SLOPE 2.85, PBLUC_R_SQUARED 0.605, read-out: LUCIFERASE INFECTION ASSAY - IC50): 1.66 µM |
| Cc1cccc(N2CCN(c3cc(C)nc4c(-c5ccccc5)c(C)nn34)CC2)n1 | > 8.28 | > 8.28 |  |
| O=C(Nc1nc2ccccn2c1C(=O)NC1CCCCC1)c1c(F)ccc(F)c1F | > 7.93 | > 7.93 |  |
| O=C1C2=C(Nc3ccccc3SC2c2ccccc2F)c2ccccc21 (configuration not stated) | 2.61 |  | IC50 (PBLUC_HILL_SLOPE 1.25, PBLUC_R_SQUARED 0.725, read-out: LUCIFERASE INFECTION ASSAY - IC50): 0.454 µM |
| CC1CCC(C(C)C)C(OC(=O)C[n+]2cn(C)c3ccccc32)C1 (configuration not stated) | 3.79 |  | IC50 (HEPG2TOX_HILL_SLOPE 2.1, HEPG2TOX_R_SQUARED 0.908, PBLUC_HILL_SLOPE 16.2, PBLUC_R_SQUARED 0.404, read-out: LUCIFERASE INFECTION ASSAY - IC50): 3.31 µM |
| C=S(=O)(NS(=O)(=O)c1ccc(-c2cc(C(F)(F)F)n(C)n2)s1)c1ccc(Cl)cc1 (configuration not stated) | > 6.82 | > 6.82 |  |
| CC(C)n1ncc2c(C(=O)Nc3nnc(C(F)(F)F)s3)cc(-c3ccc4c(c3)OCCO4)nc21 | 5.59 |  | IC50 (FFLUC_HILL_SLOPE 2.46, FFLUC_R_SQUARED 0.0818, HEPG2TOX_HILL_SLOPE 10.3, HEPG2TOX_R_SQUARED 0.775, PBLUC_HILL_SLOPE 73.3, PBLUC_R_SQUARED 0.159, read-out: LUCIFERASE INFECTION ASSAY - IC50): 5.42 µM |
| CCOc1ccc(-c2nc(CSc3nnc(-c4ccccc4OC)n3CC)cs2)cc1 | > 10 |  | IC50 (HEPG2TOX_HILL_SLOPE 10.1, HEPG2TOX_R_SQUARED 0.28, PBLUC_HILL_SLOPE 16.2, PBLUC_R_SQUARED 0.242, read-out: LUCIFERASE INFECTION ASSAY - IC50): 9.09 µM |
| Cc1ccc(CCC2CCN(C(C)C(=O)Nc3cccc(S(N)(=O)=O)c3)CC2)cc1 (configuration not stated) | > 10 | 6.94 |  |
| CC1CCC(NC(=O)c2ccc(S(=O)(=O)Nc3ccccc3)cc2)CC1 (configuration not stated) | > 10 | > 10 |  |
| Cc1ccc2c(Cl)c(C(=O)Nc3nonc3-c3ccc(F)cc3)sc2c1 | 3.32 | 1.77 |  |
| COc1ccc(Nc2nccn3c(-c4cccc(NC(C)=O)c4)cnc23)cc1 | 0.122 |  |  |
| COCOc1ccc(-c2cc(-c3cc(C)c(O)c(C)c3)cnc2N)cc1 | 6.77 | 4.46 |  |
| O=C(Nc1cc(Cl)cc(Cl)c1)OCc1ccc(Oc2ccccc2)c([N+](=O)[O-])c1 | > 7.62 | > 7.62 |  |
| COc1cc2nc(NC(=O)c3[nH]c4c(c3C)C(=O)CCC4)sc2cc1OC | > 10 | > 10 |  |
| N#C/C(=C\c1ccc([N+](=O)[O-])s1)C(N)=S | > 13.8 |  | IC50 (FFLUC_HILL_SLOPE 3.11, FFLUC_R_SQUARED 0.767, read-out: LUCIFERASE INFECTION ASSAY - IC50): > 13.8 µM |
| CCn1c(C)nc2cc(C(=O)N/N=C/c3sc(N4CCCCC4)nc3-c3cccs3)ccc21 | 4.03 |  | IC50 (HEPG2TOX_HILL_SLOPE 15, HEPG2TOX_R_SQUARED 0.462, PBLUC_HILL_SLOPE 10.3, PBLUC_R_SQUARED 0.738, read-out: LUCIFERASE INFECTION ASSAY - IC50): 3.26 µM |
| Nc1nccnc1C(=O)Nc1ncc(Cc2cc(Cl)cc(Cl)c2)s1 | 7.09 |  | IC50 (PBLUC_HILL_SLOPE 2.47, PBLUC_R_SQUARED 0.427, read-out: LUCIFERASE INFECTION ASSAY - IC50): 2.91 µM |

| SMILES | IC90 [µM] | IC50 [1] [µM] | further results |
| --- | --- | --- | --- |
| Cn1ccc2cc(-c3cnc4cnc(-c5cccc(C(=O)NCCO)c5)cn34)ccc21 | 3.63 |  | IC50 (HEPG2TOX_HILL_SLOPE 4.1, HEPG2TOX_R_SQUARED 0.752, PBLUC_HILL_SLOPE 9.77, PBLUC_R_SQUARED 0.277, read-out: LUCIFERASE INFECTION ASSAY - IC50): 2.9 µM |
| Cc1ccc(C(=O)NCc2nsc(=N/C(=N\c3ccccc3)c3ccccc3)n2Cc2ccccc2)cc1 | > 10 |  | IC50 (FFLUC_HILL_SLOPE 3.57, FFLUC_R_SQUARED 0.485, HEPG2TOX_HILL_SLOPE 6.57, HEPG2TOX_R_SQUARED 0.579, PBLUC_HILL_SLOPE 15.6, PBLUC_R_SQUARED 0.234, read-out: LUCIFERASE INFECTION ASSAY - IC50): 8.74 µM |
| Cc1ccc(Sc2ccc(NC(=O)C3CCN(C(=O)c4ccoc4)CC3)cc2)c(C)c1 | 9.64 |  | IC50 (HEPG2TOX_HILL_SLOPE 3.01, HEPG2TOX_R_SQUARED 0.581, PBLUC_HILL_SLOPE 14.8, 16.7, PBLUC_R_SQUARED 0.181, 0.0620, read-out: LUCIFERASE INFECTION ASSAY - IC50): 9.11 µM |
| O=C(Nc1nc2ccccc2s1)N1CC=C(c2c[nH]c3ncccc23)CC1 | > 10 |  | IC50 (HEPG2TOX_HILL_SLOPE 3.51, HEPG2TOX_R_SQUARED 0.954, PBLUC_HILL_SLOPE 3.11, PBLUC_R_SQUARED 0.433, read-out: LUCIFERASE INFECTION ASSAY - IC50): 6.66 µM |
| O=C(NCc1ccc(Oc2ccc(F)cc2)cc1)c1ccc(=O)[nH]n1 | > 10 |  | IC50 (HEPG2TOX_HILL_SLOPE 2.29, HEPG2TOX_R_SQUARED 0.724, PBLUC_HILL_SLOPE 1.94, PBLUC_R_SQUARED 0.162, read-out: LUCIFERASE INFECTION ASSAY - IC50): 5.95 µM |
| CCc1c(C)sc2[nH]c(-c3ccc(C(=O)N4CCN(S(=O)(=O)c5c(Cl)cccc5Cl)CC4)cc3)nc(=O)c12 | 4.36 |  | IC50 (PBLUC_HILL_SLOPE 2.05, PBLUC_R_SQUARED 0.76, read-out: LUCIFERASE INFECTION ASSAY - IC50): 1.49 µM |
| CCNC(=O)c1cccc(NC(=O)CCC(=O)c2cc(C)ccc2C)c1 | > 10 | > 10 |  |
| CC(=O)NC(C)c1ccc(C2=NNC(=Nc3cccc(Cl)c3C)SC2)cc1 (configuration not stated) | > 10 | > 10 |  |
| O=C(NCC1CC1)Nc1csc(Cc2c(Cl)cccc2Cl)n1 | > 9.26 |  | IC50 (PBLUC_HILL_SLOPE 0.58, PBLUC_R_SQUARED 0.694, read-out: LUCIFERASE INFECTION ASSAY - IC50): > 9.26 µM |
| CSCCC(C(=O)Oc1c(Cl)cc(Cl)c2ccc(C)nc12)N1C(=O)c2ccccc2C1=O (configuration not stated) | > 10 | > 10 |  |
| COc1ccc(S(=O)(=O)N2CCN(c3cc(C)c4ccccc4n3)CC2)cc1 | > 8.3 | > 8.3 |  |
| Cc1cc([N+](=O)[O-])cc[n+]1[O-] | > 21.4 |  | IC50 (PBLUC_HILL_SLOPE 2.57, PBLUC_R_SQUARED 0.305, read-out: LUCIFERASE INFECTION ASSAY - IC50): 14.6 µM |
| Cc1[nH]c(-c2ccccn2)nc(=O)c1CC(=O)NC1CCCCCCC1 | 1.71 |  | IC50 (PBLUC_HILL_SLOPE 61.7, PBLUC_R_SQUARED 0.378, read-out: LUCIFERASE INFECTION ASSAY - IC50): 1.65 µM |
| CCOC(=O)c1c(N)sc(Sc2ccccc2[N+](=O)[O-])c1-c1ccccc1 | > 10 |  | IC50 (PBLUC_HILL_SLOPE 2.49, PBLUC_R_SQUARED 0.748, read-out: LUCIFERASE INFECTION ASSAY - IC50): 4.39 µM |
| CC(C)CN(CC(C)C)CC(O)COc1ccccc1 (configuration not stated) | > 11.8 | > 11.8 |  |
| COc1cc(OC)cc(C(=O)Nc2nc3ccc(C)cn3c2C(=O)NC2CCCCC2)c1 | 1.03 |  | IC50 (HEPG2TOX_HILL_SLOPE 1.81, HEPG2TOX_R_SQUARED 0.745, PBLUC_HILL_SLOPE 12.8, PBLUC_R_SQUARED 0.53, read-out: LUCIFERASE INFECTION ASSAY - IC50): 0.872 µM |
| CCOc1ccc2nc(SCC(=O)N3Cc4ccccc4CC3C(=O)O)sc2c1 (configuration not stated) | > 10 | > 10 |  |
| Cc1nn(-c2ccccc2)c2c1C(c1cccnc1)C(c1nc3ccccc3s1)C(c1ccccc1)=N2 (configuration not stated) | > 10 |  | IC50 (FFLUC_HILL_SLOPE 3.11, FFLUC_R_SQUARED 0.548, read-out: LUCIFERASE INFECTION ASSAY - IC50): > 10 µM |
| Cc1cc(NC(=O)c2cc(-c3cccs3)nc3ccccc23)n(-c2ccccn2)n1 | 4.61 |  | IC50 (HEPG2TOX_HILL_SLOPE 1.34, HEPG2TOX_R_SQUARED 0.908, PBLUC_HILL_SLOPE 3.47, PBLUC_R_SQUARED 0.53, read-out: LUCIFERASE INFECTION ASSAY - IC50): 2.45 µM |
| O=c1cc(N2CCN(CCOc3ccccc3Cl)CC2)nc2ccccn12 | > 10 | > 10 |  |
| COc1cc(C2(O)CS/C(=C(/C#N)C(=O)Nc3ccc(Cl)cc3)N2c2ccccc2)cc(OC)c1OC (configuration not stated) | > 10 |  | IC50 (HEPG2TOX_HILL_SLOPE 8.02, HEPG2TOX_R_SQUARED 0.929, PBLUC_HILL_SLOPE 8.63, PBLUC_R_SQUARED 0.488, read-out: LUCIFERASE INFECTION ASSAY - IC50): 8.71 µM |
| Cc1c(Sc2ccc(Cl)cc2)c2ccccn2c1C(=O)c1cccs1 | > 10 |  | IC50 (PBLUC_HILL_SLOPE 3.16, PBLUC_R_SQUARED 0.487, read-out: LUCIFERASE INFECTION ASSAY - IC50): 6.35 µM |
